Source: patent publication US20240051946A1, “TARGETED PROTEIN DEGRADATION OF PARP14 FOR USE IN THERAPY” (Ribon Therapeutics, Inc., priority 2022, published 2024)

Target: T1, catalytic domain of human PARP14 (residues 1611 to 1801) with NanoLuc tag (Homo sapiens, UniProt Q460N5)
T1 construct: expressed in transfected cells; host or cells: HEK-293T cells (ATCC), plasmid pRTX240 in pcDNA3.1(-)
T1 sequence (Q460N5 1611-1801): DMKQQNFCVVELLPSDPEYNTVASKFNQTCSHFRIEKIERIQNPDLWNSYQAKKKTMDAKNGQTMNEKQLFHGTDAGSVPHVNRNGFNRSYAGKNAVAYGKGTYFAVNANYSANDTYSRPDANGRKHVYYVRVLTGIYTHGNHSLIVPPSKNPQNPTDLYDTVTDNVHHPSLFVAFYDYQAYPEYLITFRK
Experiment: NanoLuc assay for the degradation of PARP14
Assay type: cell-based
Conditions: Assay A; NanoLuc-PARP14 overexpressed in HEK-293T cells; 2 hours at 37 degrees; luminescence
Procedure: The catalytic domain of human PARP14 (residues 1611 to 1801, GenBank Accession No. NM_017554) was inserted into the pcDNA3.1(−) vector. The insert also contained a NanoLuc tag on the N terminus of the PARP14 protein.
Degradation of PARP14 protein was assessed using measurement of the NanoLuc tag as proxy for the PARP14 protein. PARP14 with NanoLuc tag was overexpressed in […] cells (ATCC) using the plasmid described in Table 1. Plasmid DNA was diluted in empty vector DNA then added to 1.163 mL of phenol red free OptiMEM (Thermo Fisher). Plasmid DNA concentrations used in each assay described in Table 1. The plasmid DNA was mixed with 78.5 μL of Fugene HD (Promega) and allowed to incubate 5 minutes.
Next, 1.125 mL were added to 10 million 293T cells in DMEM (Thermo Fisher) supplemented with 10% FBS (VWR) and 1× Glutamax (Gibco). The transfection was incubated for 24 hrs at 37 degrees in an incubator supplemented with 5% CO2. The cells were then trypsinized and brought up in phenol red free OptiMEM media. Transfected HEK-293T cells were diluted to […] and then added to assay plate (Corning 3574) using a Multidrop (Thermo Fisher) to add 40 μL per well of the 384 well plate, resulting in 5,000 cells per well. 40 nL of a dose response curve diluted in DMSO of each test compound was added to the cell plate using a Mosquito (TTP Labtech) and the plate was incubated at 37 degrees for 2 hours. Assay plate was brought to room temperature then 20 μL per well of NanoGlo (Promega) was added to the plate. Luminescence was measured on an Envision (Perkin Elmer).
The average DMSO was calculated from 32 wells containing 0.1% DMSO only in columns 12 and 24 of the assay plate. The % of DMSO values were calculated as described below: […]
The % of DMSO values were plotted as a function of compound concentration and the following 4-parameter fit was applied to derive the DC50 values:
where top, bottom, and Hill Coefficient are allowed to float. Y is the % of DMSO and X is the compound concentration.
DC50 data for the Example compounds is provided below in Table 2 (“+” is <0.1 μM; “++” is ≥0.1 μM and <1 μM; and “+++” is ≥1 μM).

DC50 [nM]	SMILES
< 100	CC(=O)N1CCC(COc2cc(F)c3c(=O)[nH]c(CCC4CCN(C(=O)C5CCN(CC6CCN(c7cccc8c7C(=O)N(C7CCC(=O)NC7=O)C8=O)CC6)CC5)CC4)nc3c2)CC1 (stereo not drawn) [Example 26, 4-(4-((4-(4-(2-(7-((1-acetylpiperidin-4-yl)methoxy)-5-fluoro-4-oxo-3,4-dihydroquinazolin-2-yl)ethyl)piperidine-1-carbonyl)piperidin-1-yl)methyl)piperidin-1-yl)-2-(2,6-dioxopiperidin-3-yl)isoindoline-1,3-dione]
< 100	CC(=O)N1CCC(COc2cc(F)c3c(=O)[nH]c(CCC4CCN(CC(=O)N5CCC(CN6CCN(c7cccc8c7C(=O)N(C7CCC(=O)NC7=O)C8=O)CC6)CC5)CC4)nc3c2)CC1 (stereo not drawn) [Example 27, 4-(4-((1-(2-(4-(2-(7-((1-acetylpiperidin-4-yl)methoxy)-5-fluoro-4-oxo-3,4-dihydroquinazolin-2-yl)ethyl)piperidin-1-yl)acetyl)piperidin-4-yl)methyl)piperazin-1-yl)-2-(2,6-dioxopiperidin-3-yl)isoindoline-1,3-dione]
< 100	CC(=O)N1CCC(COc2cc(F)c3c(=O)[nH]c(CSC4CCN(CC(=O)N5CCC(CN6CCN(c7ccc8c(c7)C(=O)N(C7CCC(=O)NC7=O)C8=O)CC6)CC5)CC4)nc3c2)CC1 (stereo not drawn) [Example 28, 5-(4-((1-(2-(4-(((7-((1-acetylpiperidin-4-yl)methoxy)-5-fluoro-4-oxo-3,4-dihydroquinazolin-2-yl)methyl)thio)piperidin-1-yl)acetyl)piperidin-4-yl)methyl)piperazin-1-yl)-2-(2,6-dioxopiperidin-3-yl)isoindoline-1,3-dione]
< 100	O=C1CCC(N2C(=O)c3ccc(N4CCN(CC5CCN(C(=O)CN6CCC(SCc7nc8cc(NC9CCCC9)cc(F)c8c(=O)[nH]7)CC6)CC5)CC4)cc3C2=O)C(=O)N1 (stereo not drawn) [Example 29, 5-(4-((1-(2-(4-(((7-(cyclopentylamino)-5-fluoro-4-oxo-3,4-dihydroquinazolin-2-yl)methyl)thio)piperidin-1-yl)acetyl)piperidin-4-yl)methyl)piperazin-1-yl)-2-(2,6-dioxopiperidin-3-yl)isoindoline-1,3-dione]
< 100	CC(=O)N1CCC(COc2cc(F)c3c(=O)[nH]c(CSC4CCN(c5ccc6c(c5)C(=O)N(C5CCC(=O)NC5=O)C6=O)CC4)nc3c2)CC1 (stereo not drawn) [Example 30, 5-(4-(((7-((1-acetylpiperidin-4-yl)methoxy)-5-fluoro-4-oxo-3,4-dihydroquinazolin-2-yl)methyl)thio)piperidin-1-yl)-2-(2,6-dioxopiperidin-3-yl)isoindoline-1,3-dione]
100 to 1000	CC(=O)N1CCC(COc2cc(F)c3c(=O)[nH]c(CSC4CCN(CC(=O)Nc5cccc6c5C(=O)N(C5CCC(=O)NC5=O)C6=O)CC4)nc3c2)CC1 (stereo not drawn) [Example 31, 2-(4-(((7-((1-acetylpiperidin-4-yl)methoxy)-5-fluoro-4-oxo-3,4-dihydroquinazolin-2-yl)methyl)thio)piperidin-1-yl)-N-(2-(2,6-dioxopiperidin-3-yl)-1,3-dioxoisoindolin-4-yl)acetamide]
< 100	CC(=O)N1CCC(COc2cc(F)c3c(=O)[nH]c(CSC4CCN(CC(=O)Nc5ccc6c(c5)C(=O)N(C5CCC(=O)NC5=O)C6=O)CC4)nc3c2)CC1 (stereo not drawn) [Example 32, 2-(4-(((7-((1-acetylpiperidin-4-yl)methoxy)-5-fluoro-4-oxo-3,4-dihydroquinazolin-2-yl)methyl)thio)piperidin-1-yl)-N-(2-(2,6-dioxopiperidin-3-yl)-1,3-dioxoisoindolin-5-yl)acetamide]
< 100	CC(=O)N1CCC(COc2cc(F)c3c(=O)[nH]c(CSC4CCN(CC5CCN(c6ccc7c(c6)C(=O)N(C6CCC(=O)NC6=O)C7=O)CC5)CC4)nc3c2)CC1 (stereo not drawn) [Example 33, 5-(4-((4-(((7-((1-acetylpiperidin-4-yl)methoxy)-5-fluoro-4-oxo-3,4-dihydroquinazolin-2-yl)methyl)thio)piperidin-1-yl)methyl)piperidin-1-yl)-2-(2,6-dioxopiperidin-3-yl)isoindoline-1,3-dione]
< 100	CC(=O)N1CCC(COc2cc(F)c3c(=O)[nH]c(CSC4CCN(CC#Cc5ccc6c(c5)C(=O)N(C5CCC(=O)NC5=O)C6=O)CC4)nc3c2)CC1 (stereo not drawn) [Example 34, 5-(3-(4-(((7-((1-acetylpiperidin-4-yl)methoxy)-5-fluoro-4-oxo-3,4-dihydroquinazolin-2-yl)methyl)thio)piperidin-1-yl)prop-1-yn-1-yl)-2-(2,6-dioxopiperidin-3-yl)isoindoline-1,3-dione]
< 100	CC(=O)N1CCC(COc2cc(F)c3c(=O)[nH]c(CSC4CCN(CC#Cc5cccc6c5n(C)c(=O)n6C5CCC(=O)NC5=O)CC4)nc3c2)CC1 (stereo not drawn) [Example 35, 3-(4-(3-(4-(((7-((1-acetylpiperidin-4-yl)methoxy)-5-fluoro-4-oxo-3,4-dihydroquinazolin-2-yl)methyl)thio)piperidin-1-yl)prop-1-yn-1-yl)-3-methyl-2-oxo-2,3-dihydro-1H-benzo[d]imidazol-1-yl)piperidine-2,6-dione]
< 100	CC(=O)N1CCC(COc2cc(F)c3c(=O)[nH]c(CSC4CCN(CC#Cc5ccc6c(c5)n(C)c(=O)n6C5CCC(=O)NC5=O)CC4)nc3c2)CC1 (stereo not drawn) [Example 36, 3-(5-(3-(4-(((7-((1-acetylpiperidin-4-yl)methoxy)-5-fluoro-4-oxo-3,4-dihydroquinazolin-2-yl)methyl)thio)piperidin-1-yl)prop-1-yn-1-yl)-3-methyl-2-oxo-2,3-dihydro-1H-benzo[d]imidazol-1-yl)piperidine-2,6-dione]
< 100	CC(=O)N1CCC(COc2cc(F)c3c(=O)[nH]c(CSC4CCN(CC#Cc5ccc(N6CCC(=O)NC6=O)cc5)CC4)nc3c2)CC1 [Example 37, 1-(4-(3-(4-(((7-((1-acetylpiperidin-4-yl)methoxy)-5-fluoro-4-oxo-3,4-dihydroquinazolin-2-yl)methyl)thio)piperidin-1-yl)prop-1-yn-1-yl)phenyl)dihydropyrimidine-2,4(1H,3H)-dione]
< 100	CC(=O)N1CCC(COc2cc(F)c3c(=O)[nH]c(CSC4CCN(CC#Cc5cccc(N6CCC(=O)NC6=O)c5)CC4)nc3c2)CC1 [Example 38, 1-(3-(3-(4-(((7-((1-acetylpiperidin-4-yl)methoxy)-5-fluoro-4-oxo-3,4-dihydroquinazolin-2-yl)methyl)thio)piperidin-1-yl)prop-1-yn-1-yl)phenyl)dihydropyrimidine-2,4(1H,3H)-dione]
< 100	CC(=O)N1CCC(COc2cc(F)c3c(=O)[nH]c(CSC4CCN(CC5CCN(c6cccc7c6C(=O)N(C6CCC(=O)NC6=O)C7=O)CC5)CC4)nc3c2)CC1 (stereo not drawn) [Example 39, 4-(4-((4-(((7-((1-acetylpiperidin-4-yl)methoxy)-5-fluoro-4-oxo-3,4-dihydroquinazolin-2-yl)methyl)thio)piperidin-1-yl)methyl)piperidin-1-yl)-2-(2,6-dioxopiperidin-3-yl)isoindoline-1,3-dione]
< 100	O=C1CCC(N2C(=O)c3ccc(N4CCC(CN5CCC(SCc6nc7cc(OCC8CC8)cc(F)c7c(=O)[nH]6)CC5)CC4)cc3C2=O)C(=O)N1 (stereo not drawn) [Example 40, 5-(4-((4-(((7-(cyclopropylmethoxy)-5-fluoro-4-oxo-3,4-dihydroquinazolin-2-yl)methyl)thio)piperidin-1-yl)methyl)piperidin-1-yl)-2-(2,6-dioxopiperidin-3-yl)isoindoline-1,3-dione]
